Measured values: US9908897B2, “Spirocyclic derivatives” (CHRONOS THERAPEUTICS LIMITED, priority 2014, dated 2018)

Columns and labels:
[1] = molecular target: human ERG potassium channel (hERG) (Homo sapiens (Human), UniProt Q12809); test: hERG tail current recording, Rapid ICE automated patch-clamp; type: cell-based; conditions: HEK293 cells stably transfected with hERG
Method: Measure of the Effect on hERG Channel by Tail Current Recording Using In Vitro Rapid ICE™
The potency of the compounds of the invention in inhibiting human ERG potassium channel (hERG) tail current is assessed in a recombinant HEK293 cell line stably transfected with hERG cDNA using Rapid ICE™ (Rapid Ion Channel Electrophysiology) assay. Rapid ICE™ is an automated patch-clamp assay utilizing the PatchXpress 7000A system (Molecular Devices Corporation) or the QPatch HTX system (Sophion Bioscience A/S).
Briefly cells are cultivated for 24 to 72 hours before recordings in minimum essential medium supplemented with 10% FBS, 1% non-essential amino acids, 1% sodium pyruvate, 2 mM L-glutamine. The day of the experiment cells are detached with TrypLE and prepared to be loaded on the instrument. For PatchXpress cells are finally resuspended in 150 μl of Extracellular Buffer whereas for QPatch cells are resuspended in 7 ml Serum-Free Media containing 25 mM Hepes and Soybean trypsin inhibitor and immediately placed in the cell storage tank of the machine. The composition of the Extracellular Buffer is (mM): NaCl 137; KCl 4; CaCl2 1.8; MgCl2 1.0; D-glucose 10; N 2 hydroxyethylpiperazine-N′-2-ethanesulfonic acid (HEPES) 10; pH 7.4 with 1 M NaOH. The composition of the pipette solution is (mM): KCl 130; MgCl2 1.0; Ethylene glycol-bis(β-aminoethyl ether)-N,N,N′,N′-tetraacetic acid (EGTA) 5; MgATP 5; HEPES 10; pH 7.2 with 1 M KOH. The voltage protocol includes the following steps: step from −80 mV to −50 mV for 200 ms, +20 mV for 4.8 s, step to −50 mV for 5 s then step to the holding potential of −80 mV. Compounds of the invention are dissolved in DMSO and diluted in Extracellular Buffer to achieve final test concentrations (0.1, 1 and 10 μM) in 0.1% DMSO. The voltage protocol is run and recorded continuously during the experiment. The vehicle, corresponding to 0.1% DMSO in Extracellular Buffer, is then applied for 3 min followed by the test substance in triplicate. The standard combined exposure time is 5 min. The average of tail current amplitude values recorded from 4 sequential voltage pulses is used to calculate for each cell the effect of the test substance by calculating the residual current (% control) compared with vehicle pre-treatment. Data are reported as % inhibition for each concentration tested and IC50 values are estimated using DataXpress or QPatch software. At least two cells are tested, more if results diverge.

[2] = molecular target: human dopamine transporter (DAT) (Homo sapiens (Human), UniProt Q01959); test: Scintillation Proximity Assay (SPA) competition binding, human DAT; conditions: recombinant hDAT-CHO membranes, [3H]WIN-35,428
From the text: (§1) Measure of Affinity to the Human Transporters DAT, NET and SERT
In the context of the present invention pKi values (corresponding to the antilogarithm of Ki) are used instead of Ki; pKi are only estimated to be accurate to about 0.3 log unit.
(§2) Scintillation Proximity Assay (SPA) for Human DAT, NET and SERT Binding
(§3) Chinese Hamster Ovary (CHO) cells stably expressing either human DAT (hDAT-CHO) or human NET (hNET-CHO) or human SERT (hSERT-CHO) are used for the membrane preparations for radioligand binding assays using Scintillation proximity Assay (SPA) technique. Each cell line is cultured independently in F-12K Nutrient Mixture containing 10% of Fetal Bovine Serum (FBS) supplemented with 450 μg/ml G-418. When cells are at 70-80% of confluence 3 mM Na Butyrate was added to the cell culture medium. After 24 h of incubation, the culture medium was removed and the cells detached with Versene (DAT) or by scraping (NET and SERT). Cell suspension is centrifuged at 41,000 g for 10 minutes at 4° C. The resultant pellets are re-suspended in 15 volumes of Ice-cold buffer (20 mM HEPES, 145 mM NaCl, 5 mM KCl, pH7.3), homogenized using an Ultra Turrax homogeniser and centrifuged as before. The resultant membrane pellets are re-suspended in up to 15 volume of ice-cold buffer, incubated for 20 minutes at 37-C and centrifuged as before at 41,000 g. The final membrane pellets are re-suspended into 5-10 volumes of ice-cold buffer, dispensed into 0.5 ml aliquots and stored at −80° C. until use. Protein concentration for each preparation is determined using Bio-Rad Protein Assay kit.
(§4) The affinity of the compounds of the invention to the human DAT or NET or SERT transporters is assessed by using the [^3H]WIN-35,428 or [^3H]nisoxetine or [^3H]citalopram binding assays in recombinant human DAT, NET and SERT membranes with the SPA technology. The final assay volume is 50 μL in 384 well plates.
(§5) Briefly, 0.5 μL of test compound in neat DMSO or 0.5 μL of DMSO for total binding (TB) or 0.5 μL of indatraline 1 mM (10 μM final concentration) for non specific binding (NSB) are added to the assay plate. 50 μL of the SPA mixture is added to each well, containing: 30 μg/mL or 10 μg/mL or 25 μg/mL DAT, NET, SERT membranes, respectively; 5 nM [^3H]WIN-35,428 or 5 nM [^3H]nisoxetine or 1 nM [^3H]citalopram, for DAT, NET, SERT assay, respectively; 2.5 mg/mL or 1 mg/mL or 4 mg/mL WGA-PVT SPA beads (PerkinElmer RPNQ0001, for DAT, NET, SERT assay, respectively. All components are added to Assay Buffer (20 mM HEPES pH 7.4, 145 mM NaCl, 5 mM KCl, 0.01% Pluronic F-127). 0.02% BSA was used for DAT binding only. Plates are sealed with Topseal A and centrifuged 1 min, 800 rpm. Plates are loaded into a 1450 Microbeta TriLux (Perkin-Elmer) plate reader and the radioactivity counted after at least 4 hrs or overnight incubation at room temperature. Curve fitting and IC50 estimations are performed using a four parameter model in XLfit (IDBS, Guilford, UK) for Microdoft Excel (Microsoft, Redmond, Wash.).

[3] = molecular target: human norepinephrine transporter (NET) (Homo sapiens (Human), UniProt P23975); test: Scintillation Proximity Assay (SPA) competition binding, human NET; conditions: recombinant hNET-CHO membranes, [3H]nisoxetine
From the text: as §1
(§6) Affinity is expressed in terms of inhibition constant (Ki) of the compounds of the invention for DAT, NET and SERT, and it is typically calculated from the IC50 values obtained in competition experiments using Cheng and Prusoff equation (Cheng and Prusoff, Biochem. Pharmacol. 22:3099, 1973). In the context of the present invention pKi values (corresponding to the antilogarithm of Ki) are used instead of Ki; pKi are only estimated to be accurate to about 0.3 log unit.
as §2, §3, §4, §5

[4] = molecular target: human serotonin transporter (SERT) (Homo sapiens (Human), UniProt P31645); test: Scintillation Proximity Assay (SPA) competition binding, human SERT; conditions: recombinant hSERT-CHO membranes, [3H]citalopram
From the text: as §1, §6, §2, §3, §4, §5

human dopamine transporter (DAT), sequence (Q01959 whole entry): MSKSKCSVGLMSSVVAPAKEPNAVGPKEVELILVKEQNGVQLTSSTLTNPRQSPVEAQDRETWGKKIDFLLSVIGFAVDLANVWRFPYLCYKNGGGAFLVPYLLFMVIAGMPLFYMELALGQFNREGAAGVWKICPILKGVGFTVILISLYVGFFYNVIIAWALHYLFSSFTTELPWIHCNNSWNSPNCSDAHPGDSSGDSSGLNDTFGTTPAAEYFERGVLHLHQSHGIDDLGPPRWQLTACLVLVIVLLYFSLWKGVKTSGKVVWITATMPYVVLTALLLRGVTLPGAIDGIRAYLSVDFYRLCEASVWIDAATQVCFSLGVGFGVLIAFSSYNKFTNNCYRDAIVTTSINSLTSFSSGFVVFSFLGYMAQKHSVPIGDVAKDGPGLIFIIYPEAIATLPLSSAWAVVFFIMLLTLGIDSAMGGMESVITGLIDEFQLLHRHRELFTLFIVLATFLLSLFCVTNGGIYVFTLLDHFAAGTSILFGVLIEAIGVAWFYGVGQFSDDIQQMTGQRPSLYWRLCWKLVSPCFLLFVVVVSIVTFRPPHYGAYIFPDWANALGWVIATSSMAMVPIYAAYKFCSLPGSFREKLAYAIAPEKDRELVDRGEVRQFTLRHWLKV
human ERG potassium channel (hERG), sequence (Q12809 whole entry): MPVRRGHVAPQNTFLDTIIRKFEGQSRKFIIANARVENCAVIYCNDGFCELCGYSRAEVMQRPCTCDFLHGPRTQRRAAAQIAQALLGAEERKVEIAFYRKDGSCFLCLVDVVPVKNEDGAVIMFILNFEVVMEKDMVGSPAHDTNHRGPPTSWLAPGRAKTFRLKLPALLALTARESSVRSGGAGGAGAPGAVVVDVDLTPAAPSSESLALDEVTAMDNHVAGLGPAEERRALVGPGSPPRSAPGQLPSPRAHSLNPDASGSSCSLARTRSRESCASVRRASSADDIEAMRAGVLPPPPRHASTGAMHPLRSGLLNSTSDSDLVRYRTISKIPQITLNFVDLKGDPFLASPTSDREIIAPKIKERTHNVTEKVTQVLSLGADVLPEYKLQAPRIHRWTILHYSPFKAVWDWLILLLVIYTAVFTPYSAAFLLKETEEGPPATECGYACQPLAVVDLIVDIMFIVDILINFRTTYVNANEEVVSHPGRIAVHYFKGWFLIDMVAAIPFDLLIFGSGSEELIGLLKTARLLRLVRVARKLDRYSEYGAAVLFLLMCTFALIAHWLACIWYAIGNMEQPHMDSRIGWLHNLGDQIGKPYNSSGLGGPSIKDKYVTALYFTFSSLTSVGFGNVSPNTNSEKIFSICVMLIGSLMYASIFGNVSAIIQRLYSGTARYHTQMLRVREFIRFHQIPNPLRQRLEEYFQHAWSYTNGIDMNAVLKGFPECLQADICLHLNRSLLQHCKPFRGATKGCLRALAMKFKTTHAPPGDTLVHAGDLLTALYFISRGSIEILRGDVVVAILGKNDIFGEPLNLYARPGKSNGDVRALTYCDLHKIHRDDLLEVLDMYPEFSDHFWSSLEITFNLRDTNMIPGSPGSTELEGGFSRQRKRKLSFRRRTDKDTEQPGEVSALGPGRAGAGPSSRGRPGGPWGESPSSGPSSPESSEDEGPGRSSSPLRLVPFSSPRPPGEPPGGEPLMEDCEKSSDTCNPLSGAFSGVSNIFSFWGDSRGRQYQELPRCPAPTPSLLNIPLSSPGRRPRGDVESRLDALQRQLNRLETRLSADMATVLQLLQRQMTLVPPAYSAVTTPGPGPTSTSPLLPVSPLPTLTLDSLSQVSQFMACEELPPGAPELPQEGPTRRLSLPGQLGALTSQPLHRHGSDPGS
human norepinephrine transporter (NET), sequence (P23975 whole entry): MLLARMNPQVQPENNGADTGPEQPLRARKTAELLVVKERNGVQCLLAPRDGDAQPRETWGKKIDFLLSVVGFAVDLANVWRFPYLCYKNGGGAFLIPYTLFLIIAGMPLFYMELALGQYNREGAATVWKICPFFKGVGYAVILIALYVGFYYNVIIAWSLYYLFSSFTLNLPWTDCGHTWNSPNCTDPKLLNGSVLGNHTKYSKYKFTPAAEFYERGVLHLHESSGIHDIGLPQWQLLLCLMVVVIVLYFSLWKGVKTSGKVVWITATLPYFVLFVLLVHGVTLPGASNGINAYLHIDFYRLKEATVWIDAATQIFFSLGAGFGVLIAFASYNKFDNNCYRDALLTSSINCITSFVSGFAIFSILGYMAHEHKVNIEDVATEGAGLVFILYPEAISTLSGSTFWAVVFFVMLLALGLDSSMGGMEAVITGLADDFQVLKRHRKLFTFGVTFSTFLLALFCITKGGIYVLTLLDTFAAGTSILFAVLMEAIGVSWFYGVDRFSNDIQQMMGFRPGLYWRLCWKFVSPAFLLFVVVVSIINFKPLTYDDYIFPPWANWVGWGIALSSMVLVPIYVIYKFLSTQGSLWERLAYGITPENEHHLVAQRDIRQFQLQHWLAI
human serotonin transporter (SERT), sequence (P31645 whole entry): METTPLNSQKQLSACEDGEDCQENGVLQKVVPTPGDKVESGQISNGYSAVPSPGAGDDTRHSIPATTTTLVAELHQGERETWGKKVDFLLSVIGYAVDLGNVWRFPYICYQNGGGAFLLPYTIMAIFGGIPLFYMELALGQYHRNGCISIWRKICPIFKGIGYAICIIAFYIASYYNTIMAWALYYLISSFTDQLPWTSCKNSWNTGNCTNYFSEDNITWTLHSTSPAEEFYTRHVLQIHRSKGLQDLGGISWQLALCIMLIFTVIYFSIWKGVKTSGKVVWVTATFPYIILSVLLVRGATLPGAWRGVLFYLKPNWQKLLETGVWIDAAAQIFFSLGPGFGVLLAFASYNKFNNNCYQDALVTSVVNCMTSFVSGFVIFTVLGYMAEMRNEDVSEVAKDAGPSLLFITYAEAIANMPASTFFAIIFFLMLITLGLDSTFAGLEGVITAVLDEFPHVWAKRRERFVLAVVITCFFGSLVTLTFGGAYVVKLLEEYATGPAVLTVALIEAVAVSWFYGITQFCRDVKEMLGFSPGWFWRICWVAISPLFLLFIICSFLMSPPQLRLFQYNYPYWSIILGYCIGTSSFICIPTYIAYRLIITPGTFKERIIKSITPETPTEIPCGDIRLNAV

Question: How did the “pIC50 hERG” value [1] turn out when `Cl.N#Cc1cccc(Oc2cc(C(F)(F)F)nc(N3CCC4(CC3)CNCCO4)n2)c1` [Example 59, 3-[(2-{1-oxa-4,9-diazaspiro[5.5]undecan-9-yl}-6-(trifluoromethyl)pyrimidin-4-yl)oxy]benzonitrile hydrochloride] was run?
Answer: 7.0

Question: What about the “pIC50 DAT” value [2] of the same molecule?
Answer: 8.01

Question: And the “pIC50 NET” value [3]?
Answer: 5.67

Question: What about the “pIC50 SERT” value [4] of the same molecule?
Answer: 5.15

Question: What does the source list for `Fc1cccc(Oc2cccc(N3CCC4(CC3)CNCCO4)c2)c1` [Example 7, 9-[3-(3-fluorophenoxy)phenyl]-1-oxa-4,9-diazaspiro[5.5]undecane]?
Answer: pIC50 hERG [1]: 5.8; pIC50 DAT [2]: 7.54; pIC50 NET [3]: 6.33; pIC50 SERT [4]: 5.99

Question: What does the source list for `N#Cc1cc(Oc2ccccc2)cc(N2CCC3(CC2)CNCCO3)c1` [Example 25, 3-{1-oxa-4,9-diazaspiro[5.5]undecan-9-yl}-5-phenoxybenzonitrile]?
Answer: pIC50 hERG [1]: 6.1; pIC50 DAT [2]: 8.66; pIC50 NET [3]: 7.19; pIC50 SERT [4]: 7.43

Question: How did the “pIC50 hERG” value [1] turn out when `O=S1(=O)CCNCC12CCN(c1nc(Oc3cccc(F)c3)cc(C(F)(F)F)n1)CC2` [Example 72, 9-[4-(3-fluorophenoxy)-6-(trifluoromethyl)pyrimidin-2-yl]-1λ^6-thia-4,9-diazaspiro[5.5]undecane-1,1-dione] was run?
Answer: 5.5

Question: And the “pIC50 DAT” value [2]?
Answer: 7.08

Question: And the “pIC50 NET” value [3]?
Answer: 4.92

Question: And the IC50 [4]?
Answer: > 100 µM

Question: Which “pIC50 hERG” value [1] does the source give for `Cl.Fc1cccc(Oc2cc(C(F)(F)F)nc(N3CCC4(CC3)CNCC(F)(F)O4)n2)c1` [Example 70, 2,2-difluoro-9-[4-(3-fluorophenoxy)-6-(trifluoromethyl)pyrimidin-2-yl]-1-oxa-4,9-diazaspiro[5.5]undecane hydrochloride] here?
Answer: 5.0

Question: What about the “pIC50 DAT” value [2] of the same molecule?
Answer: 6.65

Question: What about the “pIC50 NET” value [3] of the same molecule?
Answer: 5.17

Question: And the IC50 [4]?
Answer: > 100 µM

Question: Which results are given for `Cl.Fc1cccc(Oc2cncc(N3CCC4(CC3)CNCCO4)n2)c1` [Example 41, 9-[6-(3-fluorophenoxy)pyrazin-2-yl]-1-oxa-4,9-diazaspiro[5.5]undecane hydrochloride]?
Answer: pIC50 hERG [1]: 5.9; pIC50 DAT [2]: 7.44; pIC50 NET [3]: 5.33; pIC50 SERT [4]: 6.02

Question: With `Fc1cccc(Oc2cc(F)cc(N3CCC4(CC3)CNCCO4)c2F)c1` [Example 21, 9-[2,5-difluoro-3-(3-fluorophenoxy)phenyl]-1-oxa-4,9-diazaspiro[5.5]undecane] as the molecule, how does the “pIC50 hERG” value [1] read?
Answer: 5.4

Question: What about the “pIC50 DAT” value [2] of the same molecule?
Answer: 9.11

Question: And the “pIC50 NET” value [3]?
Answer: 7.49

Question: What about the “pIC50 SERT” value [4] of the same molecule?
Answer: 6.48

Question: `Fc1cccc(Oc2cc(N3CCC4(CC3)CNCCO4)ccc2F)c1` [Example 11, 9-[4-fluoro-3-(3-fluorophenoxy)phenyl]-1-oxa-4,9-diazaspiro[5.5]undecane] was tested. Which “pIC50 hERG” value [1] did it give?
Answer: 6.5

Question: And the “pIC50 DAT” value [2]?
Answer: 6.78

Question: And the “pIC50 NET” value [3]?
Answer: 5.72

Question: And the “pIC50 SERT” value [4]?
Answer: 6.22

Question: What does the source list for `Cc1cc(Oc2cccc(C#N)c2)nc(N2CCC3(CC2)CNCCO3)n1.Cl` [Example 46, 3-[(6-methyl-2-{1-oxa-4,9-diazaspiro[5.5]undecan-9-yl}pyrimidin-4-yl)oxy]benzonitrile hydrochloride]?
Answer: pIC50 hERG [1]: 6.6; pIC50 DAT [2]: 8.03; pIC50 NET [3]: 5.85; pIC50 SERT [4]: 6.11

Question: With `Fc1cccc(Oc2cc(F)c(F)cc2N2CCC3(CCCNC3)CC2)c1` [Example 79, 9-[4,5-difluoro-2-(3-fluorophenoxy)phenyl]-2,9-diazaspiro[5.5]undecane] as the molecule, how does the “pIC50 hERG” value [1] read?
Answer: 6.1

Question: What about the “pIC50 DAT” value [2] of the same molecule?
Answer: 7.86

Question: And the “pIC50 NET” value [3]?
Answer: 6.31

Question: And the “pIC50 SERT” value [4]?
Answer: 6.49

Question: For `Fc1c(Oc2ccccc2)cccc1N1CCC2(CC1)CNCCO2` [Example 17, 9-(2-fluoro-3-phenoxyphenyl)-1-oxa-4,9-diazaspiro[5.5]undecane], which “pIC50 hERG” value [1] is on record?
Answer: 5.4

Question: And the “pIC50 DAT” value [2]?
Answer: 8.42

Question: And the “pIC50 NET” value [3]?
Answer: 6.46

Question: What about the “pIC50 SERT” value [4] of the same molecule?
Answer: 5.65

Question: What does the source list for `Cl.Fc1cccc(Oc2cc(C(F)(F)F)cc(N3CCC4(CC3)CNCCO4)n2)c1` [Example 37, 9-[6-(3-fluorophenoxy)-4-(trifluoromethyl)pyridin-2-yl]-1-oxa-4,9-diazaspiro[5.5]undecane hydrochloride]?
Answer: pIC50 hERG [1]: 5.9; pIC50 DAT [2]: 8.86; pIC50 NET [3]: 7.07; pIC50 SERT [4]: 5.33

Question: Which “pIC50 DAT” value [2] does the source give for `c1ccc(Oc2ccccc2N2CCC3(CC2)CNCCO3)cc1` [Example 3, 9-(2-phenoxyphenyl)-1-oxa-4,9-diazaspiro[5.5]undecane] here?
Answer: 6.09

Question: What about the “pIC50 NET” value [3] of the same molecule?
Answer: 5.28

Question: What about the “pIC50 SERT” value [4] of the same molecule?
Answer: 5.02

Question: Which “pIC50 DAT” value [2] does the source give for `CN1CCCNCC12CCN(c1nc(Oc3cccc(F)c3)cc(C(F)(F)F)n1)CC2` [Example 77, 3-[4-(3-fluorophenoxy)-6-(trifluoromethyl)pyrimidin-2-yl]-7-methyl-3,7,11-triazaspiro[5.6]dodecane] here?
Answer: 8.08

Question: And the “pIC50 NET” value [3]?
Answer: 6.33

Question: What about the “pIC50 SERT” value [4] of the same molecule?
Answer: 5.30

Question: For `Cc1cc(Oc2cccc(OC(F)(F)F)c2)nc(N2CCC3(CC2)CNCCO3)n1.Cl` [Example 47, 9-{4-methyl-6-[3-(trifluoromethoxy)phenoxy]pyrimidin-2-yl}-1-oxa-4,9-diazaspiro[5.5]undecane hydrochloride], which “pIC50 DAT” value [2] is on record?
Answer: 6.59

Question: What about the “pIC50 NET” value [3] of the same molecule?
Answer: 5.51

Question: And the “pIC50 SERT” value [4]?
Answer: 5.27

Question: Which “pIC50 DAT” value [2] does the source give for `Fc1cccc(Oc2cncc(N3CCC4(CC3)CNCCO4)c2)c1` [Example 31, 9-[5-(3-fluorophenoxy)pyridin-3-yl]-1-oxa-4,9-diazaspiro[5.5]undecane] here?
Answer: 7.43

Question: And the “pIC50 NET” value [3]?
Answer: 5.96

Question: What about the “pIC50 SERT” value [4] of the same molecule?
Answer: 5.71
